# Earlier results, collected in patent US8133904B2, “Cannabinoid receptor antagonists/inverse agonists useful for treating obesity” (Jenrin Discovery, Inc., priority 2007, dated 2012).
# Conditions: patients with type 2 diabetes not treated with other anti-diabetic medications; after six months of treatment; baseline value 7.9
compound,measurement,value
Cc1c(C(=O)NN2CCCCC2)nn(-c2ccc(Cl)cc2Cl)c1-c1ccc(Cl)cc1 [rimonabant],HbA1c levels lowered,0.8%
